The subject of the assay is HBsAg. Kind of assay: HBsAg assay (chemiluminescence immunoassay of secreted HBsAg). The class given is cell-based, HBV. As to conditions: Hepatitis B virus, HepG2.2.15, HBsAg secretion, HepG2.2.15 cells, CLIA of culture supernatant. In outline: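 HepG2.2.15 cells, in duplicate, treated with three-fold serial compound dilutions (1% DMSO final); secreted HBsAg in supernatant quantified by chemiluminescence immunoassay; IC50 is the concentration reducing HBsAg secretion by 50% versus the DMSO control.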
As for `CC1c2cnc(-c3ncccn3)nc2CCN1c1cc(N2CCN(CC(=O)O)CC2)cc(F)n1` (stereo not drawn) [Example 94, 2-[4-[2-fluoro-6-(5-methyl-2-pyrimidin-2-yl-7,8-dihydro-5H-pyrido[4,3-d]pyrimidin-6-yl)-4-pyridyl]piperazin-1-yl]acetic acid], the half-maximal inhibitory concentration (IC50) came to 8860 nM.
For `CC1c2cnc(-c3ncccn3)nc2CCN1c1cc(F)cc(N2CCN(CC(=O)O)CC2)n1` (stereo not drawn) [Example 95, 2-[4-[4-fluoro-6-(5-methyl-2-pyrimidin-2-yl-7,8-dihydro-5H-pyrido[4,3-d]pyrimidin-6-yl)-2-pyridyl]piperazin-1-yl]acetic acid], the IC50 is 3780 nM.
Compound `CC1c2cnc(-c3ncccn3)nc2CCN1c1cc(NC2CCN(S(C)(=O)=O)CC2)cc(F)n1` (stereo not drawn) [Example 96, 2-Fluoro-6-(5-methyl-2-pyrimidin-2-yl-7,8-dihydro-5H-pyrido[4,3-d]pyrimidin-6-yl)-N-(1-methylsulfonyl-4-piperidyl)pyridin-4-amine] showed an IC50 of 125 nM.
As for `CC1c2cnc(-c3ncccn3)nc2CCN1c1cc(F)cc(N2CCN(S(C)(=O)=O)C(C)(C)C2)n1` (stereo not drawn) [Example 99, 6-[6-(3,3-dimethyl-4-methylsulfonyl-piperazin-1-yl)-4-fluoro-2-pyridyl]-5-methyl-2-pyrimidin-2-yl-7,8-dihydro-5H-pyrido[4,3-d]pyrimidine], the figure is 26 nM; as for `CC1c2cnc(-c3ncccn3)nc2CCN1c1cc(N2CCN(S(C)(=O)=O)C(C)(C)C2)cc(F)n1` (stereo not drawn) [Example 100, 6-[4-(3,3-dimethyl-4-methylsulfonyl-piperazin-1-yl)-6-fluoro-2-pyridyl]-5-methyl-2-pyrimidin-2-yl-7,8-dihydro-5H-pyrido[4,3-d]pyrimidine], 13 nM.
For the compound `CC1c2cnc(-c3ncccn3)nc2CCN1c1cc(F)cc(N2CCN(CC(N)=O)CC2)n1` (stereo not drawn) [Example 101, 2-[4-[4-fluoro-6-(5-methyl-2-pyrimidin-2-yl-7,8-dihydro-5H-pyrido[4,3-d]pyrimidin-6-yl)-2-pyridyl]piperazin-1-yl]acetamide], it took 60 nM to reach half-maximal inhibition (IC50).
As for `CC1c2cnc(-c3ncccn3)nc2CCN1c1cc(N2CCN(CC(N)=O)CC2)cc(F)n1` (stereo not drawn) [Example 102, 2-[4-[2-fluoro-6-(5-methyl-2-pyrimidin-2-yl-7,8-dihydro-5H-pyrido[4,3-d]pyrimidin-6-yl)-4-pyridyl]piperazin-1-yl]acetamide], the figure is 29 nM.
The figure for `CC1c2cnc(-c3ncccn3)nc2CCN1c1cc(F)cc(N2CCN(CCC(N)=O)CC2)n1` (stereo not drawn) [Example 103, 3-[4-[4-fluoro-6-(5-methyl-2-pyrimidin-2-yl-7,8-dihydro-5H-pyrido[4,3-d]pyrimidin-6-yl)-2-pyridyl]piperazin-1-yl]propanamide] is 1350 nM.
The figure for `CC1c2cnc(-c3ncccn3)nc2CCN1c1cc(N2CCN(CCC(N)=O)CC2)cc(F)n1` (stereo not drawn) [Example 104, 3-[4-[2-fluoro-6-(5-methyl-2-pyrimidin-2-yl-7,8-dihydro-5H-pyrido[4,3-d]pyrimidin-6-yl)-4-pyridyl]piperazin-1-yl]propanamide] is 220 nM; for `CC1c2cnc(-c3ncccn3)nc2CCN1c1cc(F)cc(N2CCN(S(C)(=O)=O)C(C)C2)n1` (stereo not drawn) [Example 105, 6-[4-fluoro-6-(3-methyl-4-methylsulfonyl-piperazin-1-yl)-2-pyridyl]-5-methyl-2-pyrimidin-2-yl-7,8-dihydro-5H-pyrido[4,3-d]pyrimidine] it is 23 nM.
With `CC1c2cnc(-c3ncccn3)nc2CCN1c1cc(N2CCN(S(C)(=O)=O)C(C)C2)cc(F)n1` (stereo not drawn) [Example 106, 6-[6-fluoro-4-(3-methyl-4-methylsulfonyl-piperazin-1-yl)-2-pyridyl]-5-methyl-2-pyrimidin-2-yl-7,8-dihydro-5H-pyrido[4,3-d]pyrimidine], the IC50 turned out to be 7 nM.
As for `CC1c2cnc(-c3ncccn3)nc2CCN1c1cc(F)nc(N2CCN(S(C)(=O)=O)CC2)c1` (stereo not drawn) [Example 107, 6-[2-Fluoro-6-(4-methylsulfonylpiperazin-1-yl)-4-pyridyl]-5-methyl-2-pyrimidin-2-yl-7,8-dihydro-5H-pyrido[4,3-d]pyrimidine], the figure is 10 nM.

These data come from patent US11104674B2 (Hoffmann-La Roche Inc., priority 2016, dated 2021).
